In patent US20140227173A1, “CANCER TREATMENT WITH GAMMA-SECRETASE INHIBITORS” (The Johns Hopkins University, priority 2006, published 2014):

How the values were obtained:
neuroblastoma cell lines = details: cited from earlier work
D425Med = test: Side population (Hoechst 33342 excretion) flow cytometry; format: cell-based
Method: (§1) The ability to excrete Hoechst dye, which defines SP (also known as “side population”) in flow cytometric analyses, is another marker of tumor-initiating CSC in the blood and brain (7, 8, 20). SP was therefore analyzed to obtain a second measure of the effects of Notch on CSC.
(§2) Flow cytometric analysis of S-phase fraction and cell cycle kinetics was performed using a FACSCalibur (Becton Dickinson, San Jose, Calif.) with CELL Quest, version 3.3 software (15). CD133 studies were performed using the same instrument, with antibodies from Miltenyi (Miltenyi Biotec, Auburn, Calif.) according to the manufacturer's instructions. […] Prior to analysis, cells were washed and resuspended in 2 μg/ml PI (Sigma, St. Louis, Mo.). […] To ensure proper identification of SP cells, cells were incubated as above with the addition of 50 μM verapamil (Sigma).

D283Med = test: as above; format: cell-based
Method: as §1, §2

DAOY = test: as above; format: cell-based
Method: as §1, §2

## O=C1c2c(O)ccc(O)c2C(=O)c2c(NCCNCCO)ccc(NCCNCCO)c21 [Mitoxantrone]
Neuroblastoma cell lines
  side population: increases the side population

## COc1ccc(CCN(C)CCCC(C#N)(c2ccc(OC)c(OC)c2)C(C)C)cc1OC (stereo not shown) [verapamil, reference compound]
D425Med
  side population: ablated
D283Med
  side population: ablated
DAOY
  Hoechst excretion (side population): abolished Hoechst excretion
